Here are results for 9 compounds from ChEMBL document CHEMBL1133710 (J Med Chem, 2000).

The target of assay [1] is T1, D(3) dopamine receptor (Homo sapiens, UniProt P35462).
For assay [2], the target named is T2, D(1A) dopamine receptor (Bos taurus, UniProt Q95136). As to the kind of experiment: Binding Affinity was tested on High Affinity Site of Bovine Dopamine D1 Receptor. Tested for ability to displace the radioligand [3H]-SCH- 23390.
The target of assay [3] is T3, D(4) dopamine receptor (Homo sapiens, UniProt P21917).
T3 sequence (P21917 whole entry): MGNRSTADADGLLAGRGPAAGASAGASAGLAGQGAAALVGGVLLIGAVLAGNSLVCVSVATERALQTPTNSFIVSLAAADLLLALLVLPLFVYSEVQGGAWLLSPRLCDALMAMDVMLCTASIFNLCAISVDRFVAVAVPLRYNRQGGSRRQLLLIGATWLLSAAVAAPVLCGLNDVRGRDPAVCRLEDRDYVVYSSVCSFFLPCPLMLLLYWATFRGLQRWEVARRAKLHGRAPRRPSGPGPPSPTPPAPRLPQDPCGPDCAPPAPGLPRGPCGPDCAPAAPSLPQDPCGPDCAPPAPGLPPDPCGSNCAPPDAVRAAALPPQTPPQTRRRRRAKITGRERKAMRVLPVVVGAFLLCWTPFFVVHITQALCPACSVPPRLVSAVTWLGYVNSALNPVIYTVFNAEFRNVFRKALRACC
As to the kind of experiment: Binding Affinity was tested on the high affinity site of Dopamine receptor D4.4.

Assay [4] concerns the target T4, D(2) dopamine receptor (Homo sapiens, UniProt P14416).
Assay [5] concerns the target T4, D(2) dopamine receptor. The source holds these as a separate data set.
Assay [6] concerns the target T2, D(1A) dopamine receptor. As to the kind of experiment: Binding Affinity was tested on High Affinity Site of Bovine dopamine receptor D1. Tested for ability to displace the radioligand [3H]-SCH- 23390.
The target in assay [7] is T3, D(4) dopamine receptor. As to the kind of experiment: Binding Affinity was tested on low Affinity Site of Dopamine receptor D4.4.
For assay [8], the target named is T5, D(2) dopamine receptor (Bos taurus, UniProt P20288). As to the kind of experiment: Binding Affinity was determined for decoupling of the ternary complex of Compound to Bovine dopamine receptor D2. Tested for ability to displace the radioligand [3H]spiperone at the binding site.
The target in assay [9] is T4, D(2) dopamine receptor. The experiment in a line: Dissociation constant of compound on one-site model Dopamine receptor D2S.
For assay [10], the target named is T1, D(3) dopamine receptor. The experiment in a line: Binding Affinity was tested on low Affinity Site of Dopamine receptor D3.
Assay [11] addresses T5, D(2) dopamine receptor. The experiment in a line: Binding Affinity was tested on high Affinity Site of Bovine Dopamine D2 Receptor. Tested for ability to displace the radioligand [3H]-Spiperone.
The target of assay [12] is T4, D(2) dopamine receptor. As to the kind of experiment: Binding Affinity of Compound of Dopamine receptor D2S.
For assay [13], the target named is T5, D(2) dopamine receptor. As to the kind of experiment: Dissociation constant of compound on one-site model Bovine dopamine receptor D2. Tested for ability to displace the radioligand [3H]spiperone at the binding site.
The target of assay [14] is T4, D(2) dopamine receptor. As to the kind of experiment: Binding Affinity was determined in the presence of 100 micro M Gpp(NH)p for decoupling of the ternary complex of Compound to Dopamine receptor D2L.
Assay [15] addresses T4, D(2) dopamine receptor. The experiment in a line: Binding Affinity was tested on low Affinity Site of Dopamine receptor D2L.
Assay [16] addresses T5, D(2) dopamine receptor. As to the kind of experiment: Binding Affinity was tested on high Affinity Site of Bovine dopamine receptor D2. Tested for ability to displace the radioligand [3H]pramipexole at the binding site.
Assay [17] addresses T1, D(3) dopamine receptor. The experiment in a line: Binding Affinity was determined in the presence of 100 micro M Gpp(NH)p for decoupling of the ternary complex of Compound to Dopamine receptor D3.
Assay [18] concerns the target T3, D(4) dopamine receptor. The experiment in a line: Dissociation constant of compound on one-site model Dopamine receptor D4.4.
Assay [19] deals with T5, D(2) dopamine receptor. As to the kind of experiment: Binding Affinity was tested on low Affinity Site of Bovine dopamine receptor D2. Tested for ability to displace the radioligand [3H]spiperone at the binding site.
For assay [20], the target named is T4, D(2) dopamine receptor. The experiment in a line: Dissociation constant of compound on one-site model Dopamine receptor D2L.
Assay [21] has as its target T1, D(3) dopamine receptor. As to the kind of experiment: Dissociation constant of compound on one-site model Dopamine receptor D3.
Assay [22] deals with T4, D(2) dopamine receptor. The experiment in a line: Binding Affinity was determined in the presence of 100 micro M Gpp(NH)p for decoupling of the ternary complex of Compound to Dopamine receptor D2S.
Assay [23] deals with T2, D(1A) dopamine receptor. As to the kind of experiment: Binding Affinity was tested for its ability to displace the radioligand [3H]-SCH- 23390 from High Affinity Site of Bovine dopamine receptor D1.
Assay [24] has as its target T4, D(2) dopamine receptor. The source holds these as a separate data set.
Assay [25] deals with T1, D(3) dopamine receptor. The source holds these as a separate data set.
Assay [26] deals with T4, D(2) dopamine receptor. This is another data set of the same source.
In assay [27] the target is T4, D(2) dopamine receptor. As to the kind of experiment: Binding Affinity was tested on High Affinity Site of Dopamine receptor D2S.
In assay [28] the target is T4, D(2) dopamine receptor. The experiment in a line: Binding Affinity was tested on High Affinity Site of Dopamine receptor D2L.
Assay [29] deals with T1, D(3) dopamine receptor. As to the kind of experiment: Dissociation constant of compound on one-site model Human Dopamine receptor D3.

T1 sequence (P35462 whole entry): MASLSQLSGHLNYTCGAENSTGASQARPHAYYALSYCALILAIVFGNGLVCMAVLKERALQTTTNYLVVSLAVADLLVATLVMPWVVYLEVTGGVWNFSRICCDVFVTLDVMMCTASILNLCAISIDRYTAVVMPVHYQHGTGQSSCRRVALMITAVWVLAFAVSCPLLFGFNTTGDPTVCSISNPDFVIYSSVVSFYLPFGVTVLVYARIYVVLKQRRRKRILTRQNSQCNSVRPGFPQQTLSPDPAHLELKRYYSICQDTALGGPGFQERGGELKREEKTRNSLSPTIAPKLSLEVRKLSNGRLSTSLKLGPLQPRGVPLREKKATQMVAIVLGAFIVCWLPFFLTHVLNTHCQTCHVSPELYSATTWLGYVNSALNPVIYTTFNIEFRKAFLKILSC
T5 sequence (P20288 whole entry): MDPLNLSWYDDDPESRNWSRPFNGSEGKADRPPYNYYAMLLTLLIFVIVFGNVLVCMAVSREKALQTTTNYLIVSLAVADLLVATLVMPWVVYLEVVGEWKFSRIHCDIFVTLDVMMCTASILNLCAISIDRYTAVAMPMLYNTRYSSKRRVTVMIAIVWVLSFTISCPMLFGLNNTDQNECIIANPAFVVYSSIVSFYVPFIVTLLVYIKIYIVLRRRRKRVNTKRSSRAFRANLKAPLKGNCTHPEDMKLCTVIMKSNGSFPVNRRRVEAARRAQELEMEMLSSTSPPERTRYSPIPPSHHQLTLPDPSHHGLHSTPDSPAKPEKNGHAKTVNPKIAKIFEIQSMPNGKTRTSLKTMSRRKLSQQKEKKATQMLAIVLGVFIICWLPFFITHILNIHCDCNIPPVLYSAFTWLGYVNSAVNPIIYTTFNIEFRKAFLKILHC
T4 sequence (P14416 whole entry): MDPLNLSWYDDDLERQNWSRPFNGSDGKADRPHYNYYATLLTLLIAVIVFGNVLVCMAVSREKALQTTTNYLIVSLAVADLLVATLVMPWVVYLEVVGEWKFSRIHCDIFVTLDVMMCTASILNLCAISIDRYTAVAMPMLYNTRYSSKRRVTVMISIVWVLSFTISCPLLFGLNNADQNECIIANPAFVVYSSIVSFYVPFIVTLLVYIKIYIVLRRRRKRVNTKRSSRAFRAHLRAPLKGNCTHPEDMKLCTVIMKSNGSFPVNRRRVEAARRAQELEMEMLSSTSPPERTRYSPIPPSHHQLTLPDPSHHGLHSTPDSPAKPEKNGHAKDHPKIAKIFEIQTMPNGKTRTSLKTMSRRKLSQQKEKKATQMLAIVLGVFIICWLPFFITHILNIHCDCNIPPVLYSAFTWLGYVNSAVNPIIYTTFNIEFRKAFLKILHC
T2 sequence (Q95136 whole entry): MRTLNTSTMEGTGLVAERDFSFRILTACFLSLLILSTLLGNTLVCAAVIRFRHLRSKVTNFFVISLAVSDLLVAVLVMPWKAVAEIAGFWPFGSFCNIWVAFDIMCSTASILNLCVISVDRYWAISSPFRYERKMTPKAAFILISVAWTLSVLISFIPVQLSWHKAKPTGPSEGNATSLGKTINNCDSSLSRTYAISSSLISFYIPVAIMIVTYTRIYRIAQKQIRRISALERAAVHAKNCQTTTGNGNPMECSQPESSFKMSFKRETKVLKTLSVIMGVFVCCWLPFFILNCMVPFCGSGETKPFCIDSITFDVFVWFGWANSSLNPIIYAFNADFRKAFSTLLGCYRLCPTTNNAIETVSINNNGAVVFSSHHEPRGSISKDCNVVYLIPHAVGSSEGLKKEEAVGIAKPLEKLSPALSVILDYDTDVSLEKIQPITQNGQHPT

In the case of `CCCN(CCC)C1CCC(=C(C#C[Si](C)(C)C)C#C[Si](C)(C)C)CC1` (stereo unspecified), the Ki worked out at 2.8 µM at D(3) dopamine receptor [1]; 3.9 µM at D(1A) dopamine receptor [2]; 1.9 µM at D(4) dopamine receptor [3]; 11 µM on D(2) dopamine receptor [4]; 13 µM at D(2) dopamine receptor [5].
`CCCN(CCC)C1CCC(=C(C#N)C#N)CC1` (stereo unspecified): the Ki on D(3) dopamine receptor [1] is 1.6 µM; on D(4) dopamine receptor [3], over 20 µM; on D(1A) dopamine receptor [6] it was over 20 µM; at D(2) dopamine receptor [4], over 20 µM; on D(2) dopamine receptor [5], 15 µM.
Take `CCCN(CCC)C1CC=C(C#C[Si](C)(C)C)CC1` (stereo unspecified): the inhibition constant Ki at D(3) dopamine receptor [1] was 0.047 µM; on D(4) dopamine receptor [7] it was 3.8 µM; on D(2) dopamine receptor [8], 12 µM; on D(2) dopamine receptor [9], over 20 µM; at D(3) dopamine receptor [10], 1.6 µM; on D(4) dopamine receptor [3], 0.16 µM. The inhibitory constant (Ki) is 0.15 µM at D(2) dopamine receptor [11]; over 20 µM on D(1A) dopamine receptor [6]; over 20 µM on D(2) dopamine receptor [12]; 0.16 µM at D(2) dopamine receptor [4]; 1.6 µM at D(2) dopamine receptor [13]; over 20 µM on D(2) dopamine receptor [14]. Besides, the Ki was over 20 µM at D(2) dopamine receptor [15]; 0.03 µM on D(2) dopamine receptor [16]; 0.97 µM on D(2) dopamine receptor [5]; 1.9 µM on D(3) dopamine receptor [17]; 0.64 µM on D(4) dopamine receptor [18]; 7.5 µM at D(2) dopamine receptor [19]. Also, the Ki is over 20 µM on D(2) dopamine receptor [20], 0.82 µM on D(3) dopamine receptor [21] and over 20 µM at D(2) dopamine receptor [22].
On to `CCCN(CCC)C1CCC(=CC#N)CC1` (stereo unspecified), for which the Ki on D(1A) dopamine receptor [23] was over 20 µM; at D(4) dopamine receptor [3], over 20 µM; at D(2) dopamine receptor [24] it was over 20 µM; at D(3) dopamine receptor [25], 13 µM; on D(2) dopamine receptor [26], over 20 µM.
Take `CCCN(CCC)C1CC=C(C#Cc2ccccc2)CC1` (stereo unspecified): the Ki at D(2) dopamine receptor [27] was 15 µM; at D(3) dopamine receptor [1], 3.5 µM; at D(2) dopamine receptor [28], 15 µM; on D(4) dopamine receptor [3] it was 16 µM; on D(1A) dopamine receptor [6], over 20 µM.
Consider `CCCN(CCC)C1CCC(=C(C#Cc2ccccc2)C#Cc2ccccc2)CC1` (stereo unspecified), for which the Ki on D(3) dopamine receptor [1] worked out at 1.8 µM; at D(4) dopamine receptor [3], 1.4 µM; at D(1A) dopamine receptor [6], 2.2 µM; on D(2) dopamine receptor [4], 5.2 µM; at D(2) dopamine receptor [5], 7.3 µM.
Turning to `C#CC1=CCC(N(CCC)CCC)CC1` (stereo unspecified), the Ki at D(3) dopamine receptor [1] stood at 0.0052 µM; on D(4) dopamine receptor [7], 0.38 µM; at D(3) dopamine receptor [29], 0.35 µM; at D(2) dopamine receptor [9], 2.9 µM; on D(3) dopamine receptor [10], 0.59 µM; at D(4) dopamine receptor [3], 0.022 µM. Further, the Ki at D(2) dopamine receptor [12] is 12 µM; on D(2) dopamine receptor [4] it was 0.27 µM; at D(2) dopamine receptor [14], 19 µM; on D(2) dopamine receptor [15], 14 µM; at D(2) dopamine receptor [5], 0.25 µM; on D(3) dopamine receptor [17] it was 0.72 µM. The Ki was determined as 0.17 µM at D(4) dopamine receptor [18], 2.8 µM at D(2) dopamine receptor [20] and 17 µM at D(2) dopamine receptor [22].
As for `CCCN(CCC)C1CC=C(C#N)CC1` (stereo unspecified), the Ki on D(3) dopamine receptor [1] is 13 µM; on D(4) dopamine receptor [3], over 20 µM; at D(1A) dopamine receptor [6], over 20 µM; at D(2) dopamine receptor [4], over 20 µM; at D(2) dopamine receptor [5], over 20 µM.
As to `C#CC(C#C)=C1CCC(N(CCC)CCC)CC1` (stereo unspecified), the inhibition constant Ki at D(3) dopamine receptor [1] is 4.4 µM; on D(1A) dopamine receptor [2], 16 µM; on D(4) dopamine receptor [3] it was 3.9 µM; on D(2) dopamine receptor [4], 12 µM; on D(2) dopamine receptor [5], over 20 µM.

The term Ki denotes a dissociation constant, usually derived from enzyme kinetics or from competition with a known ligand.
